Test results reported in paper PMC10541456, “A phase I, single‐center, open‐label study to investigate the absorption, distribution, metabolism and excretion of encorafenib following a single oral dose of 100 mg [ ^14C] encorafenib in healthy male subjects” (Pharmacology Research & Perspectives, 2023).

Assay: Metabolite profiles in excreta (urine, feces)
Format: in vivo, human
Procedure: A pool of equal percent volume of urine (0–48 h) was prepared for each subject. An aliquot (1.5 mL) of the pooled sample was concentrated ~7‐fold by reducing the volume under nitrogen and then combined with 50 μL methanol:water:acetic acid (50:50:0.1; v/v) followed by centrifugation at 3500 rpm (~1000 × g) for 10 min. The aliquot was then injected onto the UPLC system with off‐line radioactivity detection.
A pool of approximately equal percent by weight of feces (from 0–96 h or 0–120 h) was prepared for each subject. Feces samples were extracted two times with 2 equivalent volumes of acetonitrile: each time with 10 min of vortexing, 10 min of sonication, and centrifugation at 3500 rpm (~1000 × g) for 10 min. An aliquot of the combined supernatant was concentrated approximately 5‐fold by evaporating to dryness under nitrogen and reconstituting in methanol:water:acetic acid (50:50:0.1, v/v) 45 μL of the concentrated, reconstituted samples was injected onto the UPLC system with off‐line radioactivity detection.
Characterization and quantification of the metabolites of encorafenib in select human plasma and excreta samples were performed by the Department of DMPK (Drug Metabolism and Pharmacokinetics) at the Novartis Institutes for Biomedical Research (East Hanover, NJ, USA) using liquid chromatography (LC) coupled to radioactivity detectors and mass spectrometers (MS).
The analytical system consisted of a Waters ACQUITY UPLC system (Waters), equipped with a Phenomenex Luna PFP column (3 μm, 4.6 × 150 mm) (Phenomenex) and a guard column of the same phase, both maintained at a temperature of 30°C. The mobile phases consisted of 10 mM ammonium acetate containing 0.1% formic acid (v/v) (solvent A) and CH3CN (solvent B). The total run time was 80 min. A linear gradient elution program was used with a flow rate of 1 mL/min as described in Table 1.
The UPLC effluent was split 4:1, with […] of the total flow introduced to the mass spectrometer for mass spectral analysis and the remaining flow used for radioactivity detection.
For off‐line radioactivity detection, the eluant was collected into 96‐well Lumaplate (Packard Instrument Co) microplates using a Collect Pal fraction collector (Leap Technologies) with a collection time of 10 seconds per well. The LumaPlates were sealed after drying and counted for 10–50 min per well on a Packard Topcount microplate scintillation counter. The structural characterization of metabolites was carried out using the above UPLC profiling method coupled to a two‐channel Z‐spray (LockSprayTM) time‐of‐flight mass spectrometer (Synapt MS). Leucine enkephalin was used as the mass reference standard for exact mass measurements and was delivered via the second spray channel at a flow rate of 5 μL/minute. […]
All radioactivity data were transferred to Laura software (version 4.2.2.24, Lab Logic Ltd, UK) to generate and integrate radio‐chromatograms. Radioactive peaks for quantitative analysis were manually selected from the plots. The radioactivity in the region encompassing the beginning and end of the peak was summed. All further calculations were based on radioactivity.
The percent of radioactivity (%RA) in a particular peak, Z, was calculated as follows in Equation (1): (1) %RAinZ=DPMin PeakZ/totalDPMinallintegrated peaksx100
The concentration or amount of each component was calculated as % RA (expressed as a fraction) multiplied by the total concentration of radioactivity in plasma, or the percent of dose in the excreta.

Compound: COC(=O)N[C@@H](C)CNc1nccc(-c2cn(C(C)C)nc2-c2cc(Cl)cc(NS(C)(=O)=O)c2F)n1 [encorafenib]
- Component in feces, average (feces pool 0–96 h or 0–120 h, average of four subjects): 5.0 % of the administered radioactive dose
- Metabolism as clearance pathway, share of the recovered radioactive dose (humans): ~ 88%
- CLr as share of the glomerular filtration rate (7.5 L/h) (in vivo): 7%
- CL renal (male, human, urine and plasma, oral, 100 mg, amount in urine divided by mean plasma AUCinf, read-out: Renal clearance (CLr), estimated mean (converted)): 8.33 mL/min
- Component in urine, average (urine pool 0–48 h, average of four subjects): 1.8 % of the administered radioactive dose
